In one experiment the target is D3 receptor (Homo sapiens (Human), UniProt P35462). In words: Radioligand binding ([3H]-spiperone) to cloned D3 receptor expressed in HEK-293 EBNA cells. The conditions noted are these: HEK293 EBNA membranes, 0.5 nM [3H]-spiperone. The protocol:
(§1) HEK293 EBNA cells were transiently transfected with expression plasmids encoding for the human D2 or D3 or for the human 5-HT2A receptor, respectively. The cells were harvested 48 h post-transfection, washed three times with cold PBS and stored at −80° C. prior to use. The pellet was suspended in cold 50 mM Tris-HCl buffer containing 10 mM EDTA (pH 7.4) and was homogenized with a Polytron (Kinematica AG, Basel, Switzerland) for 20-30 sec at 12.000 rpm. After centrifugation at 48.000×g for 30 min at 4° C., the pellet was resuspended in cold 10 mM Tris-HCl buffer containing 0.1 mM EDTA (pH 7.4), homogenized, and centrifuged as above. This pellet was further resuspended in a smaller volume of ice cold 10 mM Tris-HCl buffer containing 0.1 mM EDTA (pH 7.4) and homogenized with a Polytron for 20-30 sec at 12.000 rpm. The protein content of this homogenate was determined with the Bio-Rad (Bradford) Protein Assay (Biorad Laboratories GmbH, München, Germany) according to the instructions of the manufacturer using gamma globulin as the standard. This homogenate was stored at −80° C. in aliquots and thawed immediately prior to use.
(§2) Radioligand Binding Assay
(§3) Aliquots of membrane preparations were thawed at RT, resupended in assay buffer (D2, D3: 50 mM Tris-HCl, 120 mM NaCl, 5 mM MgCl2, 1 mM EDTA, 5 mM KCl, 1.5 mM CaCl2, pH=7.4; 5-HT2A: 50 mM Tris-HCl, 10 mM MgCl2, 1 mM EGTA, pH=7.4), homogenized with a Polytron for 20-30 sec at 12.000 rpm and adjusted to a final concentration of approximately 7.5 μg protein/well (D2, D3) and 15 μg protein/well (5-HT2A), respectively.
The binding affinity (Ki) of the compounds was determined using radioligand binding. […] At the end of the incubation, the reaction mixtures were filtered on to unifilter 96-well white microplates with bonded GF/C filters (Packard BioScience, Zürich, Switzerland; preincubated for 1 h in 0.1% polyethylenimine (PEI) in assay buffer) with a Filtermate 196 harvester (Packard BioScience) and washed 3 times with cold assay buffer. The nonspecific binding was determined with equally composed reaction mixtures in the presence of 10 μM unlabelled spiperone. Per well 45 μl of Microscint 40 (Perkin Elmer, Schwerzenbach, Switzerland) was added, plates for sealed, shaken for 20 min and counted for 3 min on a Topcount Microplate Scintillation Counter (Canberra Packard SA, Zürich, Switzerland) with quenching correction.
(§4) The CPM value for each duplicate of a concentration of competing compound was averaged (y1), then the % specific binding was calculated according to the equation (((y1−non-specific)/(total binding−non-specific))×100). Graphs were plotted with the % specific binding using XLfit, a curve fitting program that iteratively plots the data using Levenberg-Marquardt algorithm. The single site competition analysis equation used was y=A+((B−A)/(1+((x/C)D))), where y is the % specific binding, A is the minimum y, B is the maximum y, C is the IC50, x is the log 10 of the concentration of the competing compound and D is the slope of the curve (the Hill Coefficient). […] The affinity constant (Ki) was calculated using the Cheng-Prusoff equation Ki=(IC50/1+([L]/Kd), where [L] is the concentration of radioligand and Kd is the dissociation constant of the radioligand at the receptor as determined by the saturation isotherm.

The target in a further experiment is D2 receptor (Homo sapiens (Human), UniProt P14416). In words: Radioligand binding ([3H]-spiperone) to cloned D2 receptor expressed in HEK-293 EBNA cells. The conditions noted are these: HEK293 EBNA membranes, 0.7 nM [3H]-spiperone. The method, then:
as §1, §2, §3
The binding affinity (Ki) of the compounds was determined using radioligand binding. […] The nonspecific binding was determined with equally composed reaction mixtures in the presence of 10 μM unlabelled spiperone. Per well 45 μl of Microscint 40 (Perkin Elmer, Schwerzenbach, Switzerland) was added, plates for sealed, shaken for 20 min and counted for 3 min on a Topcount Microplate Scintillation Counter (Canberra Packard SA, Zürich, Switzerland) with quenching correction.
as §4

Sequence of D3 receptor (P35462 whole entry): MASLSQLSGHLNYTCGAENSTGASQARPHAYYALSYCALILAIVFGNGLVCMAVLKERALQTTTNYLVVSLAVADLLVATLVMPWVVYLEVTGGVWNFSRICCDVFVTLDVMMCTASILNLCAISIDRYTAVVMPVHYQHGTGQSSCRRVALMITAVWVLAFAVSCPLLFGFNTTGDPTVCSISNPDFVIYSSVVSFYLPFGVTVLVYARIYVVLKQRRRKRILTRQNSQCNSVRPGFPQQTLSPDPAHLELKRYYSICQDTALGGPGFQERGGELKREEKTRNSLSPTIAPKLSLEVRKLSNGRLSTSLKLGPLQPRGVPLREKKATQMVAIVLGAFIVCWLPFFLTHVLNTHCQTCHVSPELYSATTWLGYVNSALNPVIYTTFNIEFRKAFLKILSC
Sequence of D2 receptor (P14416 whole entry): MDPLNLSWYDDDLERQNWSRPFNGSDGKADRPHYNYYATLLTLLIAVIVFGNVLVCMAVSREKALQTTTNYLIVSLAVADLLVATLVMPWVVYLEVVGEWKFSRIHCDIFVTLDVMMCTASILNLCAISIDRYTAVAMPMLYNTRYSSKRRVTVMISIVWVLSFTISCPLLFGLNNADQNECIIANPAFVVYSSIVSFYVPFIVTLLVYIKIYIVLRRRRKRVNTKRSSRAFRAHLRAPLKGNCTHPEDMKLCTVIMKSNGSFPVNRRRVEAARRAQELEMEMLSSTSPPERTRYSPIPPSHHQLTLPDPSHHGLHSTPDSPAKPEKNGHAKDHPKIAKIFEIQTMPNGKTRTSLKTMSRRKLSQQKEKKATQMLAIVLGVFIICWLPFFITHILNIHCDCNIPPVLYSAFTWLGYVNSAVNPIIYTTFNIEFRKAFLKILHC

By Ki is commonly meant the equilibrium dissociation constant of an inhibitor or competing ligand from its target. A low value points to a stronger hold on the target. Consider `CC(C)(O)CC(=O)N[C@H]1CC[C@H](CCN2CCN(c3cccc4c3OCO4)CC2)CC1` [Example 27, Trans-N-{4-[2-(4-Benzo[1,3]dioxol-4-yl-piperazin-1-yl)-ethyl]-cyclohexyl}-3-hydroxy-3-methyl-butyramide], for which the Ki came to 0.00156 µM at D3 receptor and 0.0768 µM on D2 receptor.

`O=S(=O)(N[C@H]1CC[C@H](CCN2CCN(c3cccc4c3OCO4)CC2)CC1)c1ccccc1` [Example 67, N-trans-{4-[2-(4-Benzo[1,3]dioxol-4-yl-piperazin-1-yl)-ethyl]-cyclohexyl}-benzenesulfonamide] displayed a Ki at D3 receptor of 0.00288 µM.

In the case of `O=C(N[C@H]1CC[C@H](CCN2CCN(c3cccc4c3OCO4)CC2)CC1)C1CCC1` [Example 54, Cyclobutanecarboxylic acid-trans-N-{4-[2-(4-benzo[1,3]dioxol-4-yl-piperazin-1-yl)-ethyl]-cyclohexyl}-amide], the Ki on D3 receptor is 0.00197 µM; on D2 receptor it was 0.0911 µM.

As for `O=C(Nc1ccc(Cl)cc1)N[C@H]1CC[C@H](CCN2CCN(c3cccc4c3OCO4)CC2)CC1` [Example 75, N-trans-1-{4-[2-(4-Benzo[1,3]dioxol-4-yl-piperazin-1-yl)-ethyl]-cyclohexyl}-3-(4-chloro-phenyl)-urea], the values for the Ki at D3 receptor and on D2 receptor were 0.00104 µM and 0.158 µM, respectively.

Consider `O=S(=O)(N[C@H]1CC[C@H](CCN2CCN(c3cccc4c3OCO4)CC2)CC1)N1CCOCC1` [Example 77, Morpholine-4-sulfonic acid-trans-N-{4-[2-(4-benzo[1,3]dioxol-4-yl-piperazin-1-yl)-ethyl]-cyclohexyl}-amide], for which the values for the Ki at D3 receptor and at D2 receptor were 0.00129 µM and 0.063 µM, respectively.

Regarding `CS(=O)(=O)N[C@H]1CC[C@H](CCN2CCN(c3cccc4c3OCO4)CC2)CC1` [Example 34, Trans-N-{4-[2-(4-Benzo[1,3]dioxol-4-yl-piperazin-1-yl)-ethyl]-cyclohexyl}-methanesulfonamide], the values for the Ki on D3 receptor and on D2 receptor were 0.0031 µM and 0.145 µM, respectively.

`O=C(N[C@H]1CC[C@H](CCN2CCN(c3cccc4c3OCO4)CC2)CC1)C1CCCO1` (stereo partly drawn) [Example 44, Tetrahydro-furan-2-carboxylic acid-trans-N-{4-[2-(4-benzo[1,3]dioxol-4-yl-piperazin-1-yl)-ethyl]-cyclohexyl}-amide]: the affinity at D2 receptor, expressed as Ki, was 0.117 µM.

Take `N#Cc1ccc(C(=O)N[C@H]2CC[C@H](CCN3CCN(c4cccc5c4OCO5)CC3)CC2)cc1` [Example 59, Trans-N-{4-[2-(4-Benzo[1,3]dioxol-4-yl-piperazin-1-yl)-ethyl]-cyclohexyl}-4-cyano-benzamide]: the Ki at D3 receptor amounted to 0.00355 µM; at D2 receptor, 0.101 µM.

Take `CCC(=O)N[C@H]1CC[C@H](CCN2CCN(c3cccc4c3OCO4)CC2)CC1` [Example 7, Trans-N-{4-[2-(4-Benzo[1,3]dioxol-4-yl-piperazin-1-yl)-ethyl]-cyclohexyl}-propionamide]: the Ki at D3 receptor was determined as 0.00128 µM; at D2 receptor, 0.0745 µM.

Consider `O=C(N[C@H]1CC[C@H](CCN2CCN(c3cccc4c3OCO4)CC2)CC1)N1CCc2ccccc21` [Example 71, 2,3-Dihydro-indole-1-carboxylic acid-trans-N-{4-[2-(4-benzo[1,3]dioxol-4-yl-piperazin-1-yl)-ethyl]-cyclohexyl}-amide], for which the results for the Ki on D3 receptor and on D2 receptor were 0.00201 µM and 0.241 µM, respectively.

For the compound `O=C(N[C@H]1CC[C@H](CCN2CCN(c3cccc4c3OCO4)CC2)CC1)c1ccnc2ccccc12` [Example 47, Quinoline-4-carboxylic acid-trans-N-{4-[2-(4-benzo[1,3]dioxol-4-yl-piperazin-1-yl)-ethyl]-cyclohexyl}-amide], the values for the Ki at D3 receptor and on D2 receptor were 0.0024 µM and 0.509 µM, respectively.

Regarding `CCCC(=O)N[C@H]1CC[C@H](CCN2CCN(c3cccc4c3OCO4)CC2)CC1` [Example 19, Trans-N-{4-[2-(4-Benzo[1,3]dioxol-4-yl-piperazin-1-yl)-ethyl]-cyclohexyl}-butyramide], the Ki at D3 receptor turned out to be 0.00158 µM; at D2 receptor it was 0.144 µM.

As for `O=S(=O)(CC(F)(F)F)N[C@H]1CC[C@H](CCN2CCN(c3cccc4c3OCO4)CC2)CC1` [Example 66, 2,2,2-Trifluoro-ethanesulfonic acid-trans-N-{4-[2-(4-benzo[1,3]dioxol-4-yl-piperazin-1-yl)-ethyl]-cyclohexyl}-amide], the values for the Ki at D3 receptor and at D2 receptor were 0.00188 µM and 0.0738 µM, respectively.

Consider `COCC(=O)N[C@H]1CC[C@H](CCN2CCN(c3cccc4c3OCO4)CC2)CC1` [Example 9, Trans-N-{4-[2-(4-Benzo[1,3]dioxol-4-yl-piperazin-1-yl)-ethyl]-cyclohexyl}-2-methoxy-acetamide], for which the Ki at D3 receptor came out at 0.00437 µM; at D2 receptor, 0.238 µM.

At D3 receptor, `CO[C@H]1CC[C@H](CC(=O)N[C@H]2CC[C@H](CCN3CCN(c4cccc5c4OCO5)CC3)CC2)CC1` [Example 56, Trans-N-{4-[2-(4-Benzo[1,3]dioxol-4-yl-piperazin-1-yl)-ethyl]-cyclohexyl}-2-(4-methoxy-cyclohexyl)-acetamide] had a Ki of 0.00337 µM.

For `O=C(Cc1ccc2c(c1)OCO2)N[C@H]1CC[C@H](CCN2CCN(c3cccc4c3OCO4)CC2)CC1` [Example 51, 2-Benzo[1,3]dioxol-5-yl-trans-N-{4-[2-(4-benzo[1,3]dioxol-4-yl-piperazin-1-yl)-ethyl]-cyclohexyl}-acetamide], the Ki on D3 receptor came to 0.00211 µM; at D2 receptor, 0.681 µM.

Regarding `CC(C)(O)C(=O)N[C@H]1CC[C@H](CCN2CCN(c3cccc4c3OCO4)CC2)CC1` [Example 24, Trans-N-{4-[2-(4-Benzo[1,3]dioxol-4-yl-piperazin-1-yl)-ethyl]-cyclohexyl}-2-hydroxy-2-methyl-propionamide], the values for the Ki at D3 receptor and on D2 receptor were 0.0088 µM and 0.181 µM, respectively.

In the case of `O=C(N[C@H]1CC[C@H](CCN2CCN(c3cccc4c3OCO4)CC2)CC1)C1(O)CCC1` [Example 35, 1-Hydroxy-cyclobutanecarboxylic acid-trans-N-{4-[2-(4-benzo[1,3]dioxol-4-yl-piperazin-1-yl)-ethyl]-cyclohexyl}-amide], the Ki at D2 receptor turned out to be 0.0849 µM.

Take `O=C(CC1(O)CCCCC1)N[C@H]1CC[C@H](CCN2CCN(c3cccc4c3OCO4)CC2)CC1` [Example 15, Trans-N-{4-[2-(4-Benzo[1,3]dioxol-4-yl-piperazin-1-yl)-ethyl]-cyclohexyl}-2-(1-hydroxy-cyclohexyl)-acetamide]: the Ki turned out to be 0.00348 µM at D3 receptor and 0.16 µM on D2 receptor.

In the case of `O=C(C[C@H]1CCCCO1)N[C@H]1CC[C@H](CCN2CCN(c3cccc4c3OCO4)CC2)CC1` (single isomer, unassigned) [Example 31, Trans-N-{4-[2-(4-Benzo[1,3]dioxol-4-yl-piperazin-1-yl)-ethyl]-cyclohexyl}-2-(R) or (S)-tetrahydro-pyran-2-yl-acetamide], the affinity at D2 receptor corresponds to a Ki of 0.31 µM.

Compound `Cn1cnc(S(=O)(=O)N[C@H]2CC[C@H](CCN3CCN(c4cccc5c4OCO5)CC3)CC2)c1` [Example 69, 1-Methyl-1H-imidazole-4-sulfonic acid-trans-N-{4-[2-(4-benzo[1,3]dioxol-4-yl-piperazin-1-yl)-ethyl]-cyclohexyl}-amide] registered a Ki at D3 receptor of 0.00225 µM.

Turning to `O=C(C[C@@H]1CCCCO1)N[C@H]1CC[C@H](CCN2CCN(c3cccc4c3OCO4)CC2)CC1` (single isomer, unassigned) [Example 30, Trans-N-{4-[2-(4-Benzo[1,3]dioxol-4-yl-piperazin-1-yl)-ethyl]-cyclohexyl}-2-(S) or (R)-tetrahydro-pyran-2-yl-acetamide], on D2 receptor, the affinity corresponds to a Ki of 0.22 µM.

The values above are taken from US8722683B2, “Benzodioxole piperazine compounds” (Hoffmann LA-Roche Inc., priority 2011, dated 2014).
